From patent US20150344540A1, “NOVEL GLP-1 RECEPTOR AGONISTS WITH CHOLESTEROL EFFLUX ACTIVITY” (NOVO NORDISK A/S, priority 2012, published 2015)
Like-named read-outs stand apart in the source and are kept apart here. Where a SMILES comes first, the peptide text is derived from it. [ ]: non-standard residue; d: D form. Aib = CC(C)(N)C(=O)O

What was measured:
[1] = test system: Mouse monocyte/macrophage cell line, RAW 264.7; assay: Cholesterol efflux assay (3H-cholesterol, macrophage cell line); format: cell-based; details: RAW 264.7, 4 hrs incubation, 0.1% human serum albumin, ABCA1-mediated efflux
[2] = target: human GLP-1 receptor (Homo sapiens, UniProt P43220); assay: Functional GLP-1 receptor assay, in vitro potency (CRE luciferase; whole cells); format: cell-based; details: BHK cells expressing human GLP-1 receptor
Sequence of human GLP-1 receptor (P43220 24-463): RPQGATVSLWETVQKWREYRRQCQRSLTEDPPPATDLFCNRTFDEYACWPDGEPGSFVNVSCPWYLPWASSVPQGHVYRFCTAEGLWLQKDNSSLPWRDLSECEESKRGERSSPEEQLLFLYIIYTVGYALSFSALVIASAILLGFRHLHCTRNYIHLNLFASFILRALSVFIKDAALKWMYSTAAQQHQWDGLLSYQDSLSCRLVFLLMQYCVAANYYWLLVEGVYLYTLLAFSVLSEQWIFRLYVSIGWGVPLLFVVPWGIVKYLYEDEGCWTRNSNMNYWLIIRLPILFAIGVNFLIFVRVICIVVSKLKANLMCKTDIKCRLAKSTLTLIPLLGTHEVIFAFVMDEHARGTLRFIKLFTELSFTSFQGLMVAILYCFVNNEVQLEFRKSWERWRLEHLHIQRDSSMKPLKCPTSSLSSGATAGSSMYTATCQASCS

[3] = 0% HSA, read-out: GLP1R CRE luc 0% HSA EC50 Mean Value
[4] = GLP1R CRE luc 1% HSA EC50 Mean Value, 1% HSA

Structure (SMILES) | EC50 [2, 3] | EC50 [2, 4] | 4 h Cholesterol Efflux Emax [1]
CC[C@H](C)[C@H](NC(=O)[C@H](Cc1ccccc1)NC(=O)[C@H](CCC(=O)O)NC(=O)[C@H](CCCCN)NC(=O)[C@@H](NC(=O)[C@H](C)NC(=O)[C@H](CCC(N)=O)NC(=O)CNC(=O)[C@H](CCC(=O)O)NC(=O)[C@H](CC(C)C)NC(=O)[C@H](Cc1ccc(O)cc1)NC(=O)[C@H](CO)NC(=O)[C@H](CO)NC(=O)[C@@H](NC(=O)[C@H](CC(=O)O)NC(=O)[C@H](CO)NC(=O)[C@@H](NC(=O)[C@H](Cc1ccccc1)NC(=O)[C@@H](NC(=O)CNC(=O)[C@H](CCC(=O)O)NC(=O)C(C)(C)NC(=O)[C@@H](N)Cc1c[nH]cn1)[C@@H](C)O)[C@@H](C)O)C(C)C)C(C)C)C(=O)N[C@@H](C)C(=O)N[C@@H](Cc1c[nH]c2ccccc12)C(=O)N[C@@H](CC(C)C)C(=O)N[C@H](C(=O)N[C@@H](CC(N)=O)C(=O)N[C@@H](CCCCN)C(=O)NC(C)(C)C(=O)N[C@@H](C)C(=O)N[C@@H](CCC(=O)O)C(=O)N[C@@H](Cc1ccccc1)C(=O)N[C@@H](CC(C)C)C(N)=O)C(C)C [Compound 73] (H-H[Aib]EGTFTSDVSSYLEGQAVKEFIAWLVNK[Aib]AEFL-NH2) | 0.108 nM | 0.062 nM | 86%
CC[C@H](C)[C@H](NC(=O)[C@H](Cc1ccccc1)NC(=O)[C@H](CCC(=O)O)NC(=O)[C@H](CCCCN)NC(=O)[C@@H](NC(=O)[C@H](C)NC(=O)[C@H](CCC(=O)O)NC(=O)CNC(=O)[C@H](CCC(=O)O)NC(=O)[C@H](CC(C)C)NC(=O)[C@H](Cc1ccc(O)cc1)NC(=O)[C@H](CO)NC(=O)[C@H](CO)NC(=O)[C@@H](NC(=O)[C@H](CC(=O)O)NC(=O)[C@H](CO)NC(=O)[C@@H](NC(=O)[C@H](Cc1ccccc1)NC(=O)[C@@H](NC(=O)CNC(=O)[C@H](CCC(=O)O)NC(=O)C(C)(C)NC(=O)[C@@H](N)Cc1c[nH]cn1)[C@@H](C)O)[C@@H](C)O)C(C)C)C(C)C)C(=O)N[C@@H](C)C(=O)N[C@@H](Cc1c[nH]c2ccccc12)C(=O)N[C@@H](CC(C)C)C(=O)N[C@H](C(=O)N[C@@H](CCC(=O)O)C(=O)N[C@@H](CCCCN)C(=O)NC(C)(C)C(=O)N[C@@H](CCCCN)C(=O)N[C@@H](Cc1c[nH]cn1)C(=O)N[C@@H](Cc1ccccc1)C(=O)N[C@@H](CC(C)C)C(N)=O)C(C)C [Compound 31, [Aib8,Glu23,Val25,Glu34,Lys35,Aib36,Lys37]-GLP-1-(7-37)-peptidyl-His-Phe-Leu amide] (H-H[Aib]EGTFTSDVSSYLEGEAVKEFIAWLVEK[Aib]KHFL-NH2) |  | 0.062 nM | 84%
CC[C@H](C)[C@H](NC(=O)[C@H](Cc1ccccc1)NC(=O)[C@H](CCC(=O)O)NC(=O)[C@H](CCCNC(=N)N)NC(=O)[C@@H](NC(=O)[C@H](C)NC(=O)[C@H](CCC(=O)O)NC(=O)[C@H](CCC(=O)O)NC(=O)[C@H](CCC(=O)O)NC(=O)[C@H](CCSC)NC(=O)[C@H](CCC(N)=O)NC(=O)[C@H](CCCCN)NC(=O)[C@H](CO)NC(=O)[C@H](CC(C)C)NC(=O)[C@H](CC(=O)O)NC(=O)[C@H](CO)NC(=O)[C@@H](NC(=O)[C@H](Cc1ccccc1)NC(=O)[C@@H](NC(=O)CNC(=O)[C@H](CCC(=O)O)NC(=O)C(C)(C)NC(=O)[C@@H](N)Cc1c[nH]cn1)[C@@H](C)O)[C@@H](C)O)C(C)C)C(=O)N[C@@H](CCC(=O)O)C(=O)N[C@@H](Cc1c[nH]c2ccccc12)C(=O)N[C@@H](CC(C)C)C(=O)N[C@@H](CCCCN)C(=O)N[C@@H](CC(N)=O)C(=O)N[C@@H](CCCCN)C(=O)NC(C)(C)C(=O)N[C@@H](CC(C)C)C(=O)N[C@@H](CCC(=O)O)C(=O)N[C@@H](Cc1ccccc1)C(=O)N[C@@H](CC(C)C)C(=O)N[C@@H](CCC(=O)O)C(=O)N[C@@H](CC(C)C)C(=O)N1CCC[C@H]1C(N)=O [Compound 40, [Aib2,Glu21,Lys29,Aib30,Leu31,Glu32,Phe33,Leu34,Glu35,Leu361-Exendin-4-(1-37)-peptide amide] (H-H[Aib]EGTFTSDLSKQMEEEAVREFIEWLKNK[Aib]LEFLELP-NH2; N-terminus assumed) | 0.023 nM | 0.01 nM | 91%
CC[C@H](C)[C@H](NC(=O)[C@H](Cc1ccccc1)NC(=O)[C@H](CCC(=O)O)NC(=O)[C@H](CCCCN)NC(=O)[C@@H](NC(=O)[C@H](C)NC(=O)[C@H](CCC(=O)O)NC(=O)CNC(=O)[C@H](CCC(=O)O)NC(=O)[C@H](CC(C)C)NC(=O)[C@H](Cc1ccc(O)cc1)NC(=O)[C@H](CO)NC(=O)[C@H](CO)NC(=O)[C@@H](NC(=O)[C@H](CC(=O)O)NC(=O)[C@H](CO)NC(=O)[C@@H](NC(=O)[C@H](Cc1ccccc1)NC(=O)[C@@H](NC(=O)CNC(=O)[C@H](CCC(=O)O)NC(=O)C(C)(C)NC(=O)[C@@H](N)Cc1c[nH]cn1)[C@@H](C)O)[C@@H](C)O)C(C)C)C(C)C)C(=O)N[C@@H](C)C(=O)N[C@@H](Cc1c[nH]c2ccccc12)C(=O)N[C@@H](CC(C)C)C(=O)N[C@H](C(=O)N[C@@H](CCC(=O)O)C(=O)N[C@@H](CCCCN)C(=O)NC(C)(C)C(=O)N[C@@H](CCCCN)C(=O)N[C@@H](CCC(=O)O)C(=O)N[C@@H](Cc1ccccc1)C(=O)N[C@@H](CC(C)C)C(=O)N[C@@H](CCC(=O)O)C(=O)N[C@@H](CCCCN)C(N)=O)C(C)C [Compound 70, [Aib8,Glu23,Val25,Glu34,Lys35,Aib36,Lys37]-GLP-1-(7-37)-peptidyl-Glu-Phe-Leu-Glu-Lys amide] | 0.157 nM |  | 91%
CC[C@H](C)[C@H](NC(=O)[C@H](Cc1ccccc1)NC(=O)[C@H](CCC(=O)O)NC(=O)[C@H](CCCNC(=N)N)NC(=O)[C@@H](NC(=O)[C@H](C)NC(=O)[C@H](CCC(=O)O)NC(=O)[C@H](CCC(=O)O)NC(=O)[C@H](CCC(=O)O)NC(=O)[C@H](CCSC)NC(=O)[C@H](CCC(N)=O)NC(=O)[C@H](CCCCN)NC(=O)[C@H](CO)NC(=O)[C@H](CC(C)C)NC(=O)[C@H](CC(=O)O)NC(=O)[C@H](CO)NC(=O)[C@@H](NC(=O)[C@H](Cc1ccccc1)NC(=O)[C@@H](NC(=O)CNC(=O)[C@H](CCC(=O)O)NC(=O)C(C)(C)NC(=O)[C@@H](N)Cc1c[nH]cn1)[C@@H](C)O)[C@@H](C)O)C(C)C)C(=O)N[C@@H](CCC(=O)O)C(=O)N[C@@H](Cc1c[nH]c2ccccc12)C(=O)N[C@@H](CC(C)C)C(=O)N[C@@H](CCCCN)C(=O)N[C@@H](CC(N)=O)C(=O)NCC(=O)NC(C)(C)C(=O)N[C@@H](CC(C)C)C(=O)N[C@@H](CCC(=O)O)C(=O)N[C@@H](Cc1ccccc1)C(=O)N[C@@H](CC(C)C)C(=O)N[C@@H](CCC(=O)O)C(=O)N[C@@H](CC(C)C)C(=O)N[C@@H](CC(C)C)C(N)=O [Compound 34, [Aib2,Glu21,Aib30,Leu31,Glu32,Phe33,Leu34,Glu35,Leu36,Leu371-Exendin-4-(1-37)-peptide amide] (H-H[Aib]EGTFTSDLSKQMEEEAVREFIEWLKNG[Aib]LEFLELL-NH2; N-terminus assumed) |  | 0.032 nM | 94%

Continued, in another order:

EC50 [2, 3] | EC50 [2, 4] | Structure (SMILES) | 4 h Cholesterol Efflux Emax [1]
 | 0.032 nM | CC[C@H](C)[C@H](NC(=O)[C@H](Cc1ccccc1)NC(=O)[C@H](CCC(=O)O)NC(=O)[C@H](CCCCN)NC(=O)[C@@H](NC(=O)[C@H](C)NC(=O)[C@H](CCC(=O)O)NC(=O)CNC(=O)[C@H](CCC(=O)O)NC(=O)[C@H](CC(C)C)NC(=O)[C@H](Cc1ccc(O)cc1)NC(=O)[C@H](CO)NC(=O)[C@H](CO)NC(=O)[C@@H](NC(=O)[C@H](CC(=O)O)NC(=O)[C@H](CO)NC(=O)[C@@H](NC(=O)[C@H](Cc1ccccc1)NC(=O)[C@@H](NC(=O)CNC(=O)[C@H](CCC(=O)O)NC(=O)C(C)(C)NC(=O)[C@@H](N)Cc1c[nH]cn1)[C@@H](C)O)[C@@H](C)O)C(C)C)C(C)C)C(=O)N[C@@H](C)C(=O)N[C@@H](Cc1c[nH]c2ccccc12)C(=O)N[C@@H](CC(C)C)C(=O)N[C@H](C(=O)N[C@@H](CCC(=O)O)C(=O)N[C@@H](CCCCN)C(=O)N[C@H](C(=O)N[C@@H](CCCCN)C(=O)NCC(=O)N[C@@H](Cc1ccccc1)C(=O)N[C@@H](CC(C)C)C(N)=O)C(C)C)C(C)C [Compound 115, [Aib8,Glu23,Val25,Glu34,Lys35,Val36,Lys37]-GLP-1-(7-37)-peptidyl-Glv-Phe-Leu amide] (H-H[Aib]EGTFTSDVSSYLEGEAVKEFIAWLVEKVKGFL-NH2) | 94%
 | 0.273 nM | CC[C@H](C)[C@H](NC(=O)[C@H](Cc1ccccc1)NC(=O)[C@H](CCC(=O)O)NC(=O)[C@H](CCCCN)NC(=O)[C@@H](NC(=O)[C@H](CCCNC(=N)N)NC(=O)[C@H](CCC(=O)O)NC(=O)CNC(=O)[C@H](CCC(=O)O)NC(=O)[C@H](CC(C)C)NC(=O)[C@H](Cc1ccc(O)cc1)NC(=O)[C@H](CO)NC(=O)[C@H](CO)NC(=O)[C@@H](NC(=O)[C@H](CC(=O)O)NC(=O)[C@H](CO)NC(=O)[C@@H](NC(=O)[C@H](Cc1ccccc1)NC(=O)[C@@H](NC(=O)CNC(=O)[C@H](CCC(=O)O)NC(=O)C(C)(C)NC(=O)[C@@H](N)Cc1c[nH]cn1)[C@@H](C)O)[C@@H](C)O)C(C)C)C(C)C)C(=O)N[C@@H](C)C(=O)N[C@@H](Cc1c[nH]c2ccccc12)C(=O)N[C@@H](CC(C)C)C(=O)N[C@H](C(=O)N[C@@H](CCC(=O)O)C(=O)N[C@@H](CCCCN)C(=O)NC(C)(C)C(=O)N[C@@H](CCCCN)C(=O)N[C@@H](CCC(=O)O)C(=O)N[C@@H](Cc1ccccc1)C(=O)N[C@@H](CC(C)C)C(N)=O)C(C)C [Compound 53, [Aib8,Glu23,Arg24,Val25,Glu34,Lys35,Aib36,Lys37]-GLP-1-(7-37)-peptidyl-Glu-Phe-Leu amide] (H-H[Aib]EGTFTSDVSSYLEGERVKEFIAWLVEK[Aib]KEFL-NH2) | 109%
